# Test results taken from US9273033B2, “Substituted pyridone derivatives as PDE10 inhibitors” (Merck Sharp & Dohme Corp., priority 2012, dated 2016).
# Target: human PDE10A2 (Homo sapiens (Human), UniProt Q9Y233)
# Assay: PDE10 fluorescence polarization (IMAP FP) inhibition assay
# Assay type: biochemical
# Conditions: human PDE10A2, FAM-labeled cAMP substrate, read-out: PDE10A Ki
# Procedure: The activity of the compounds in accordance with the present invention as PDE10 inhibitors may be readily determined without undue experimentation using a fluorescence polarization (FP) methodology that is well known in the art (Huang, W., et al., J. Biomol Screen, 2002, 7: 215).
# In a typical experiment the PDE10 inhibitory activity of the compounds of the present invention was determined in accordance with the following experimental method. PDE10A2 was amplified from human fetal brain cDNA (Clontech, Mountain View, Calif.) using a forward primer corresponding to nucleotides 56-77 of human PDE10A2 (Accession No. AF127480, Genbank Identifier 4894716), containing a Kozak consensus sequence, and a reverse primer corresponding to nucleotides 2406-2413 of human PDE10A2 (Accession No. AF127480, Genbank Identifier 4894716). Amplification with Easy-A polymerase (Stratagene, La Jolla, Calif.) was 95° C. for 2 minutes followed by thirty three cycles of 95° C. for 40 seconds, 55° C. for 30 seconds, and 72° C. for 2 minutes 48 seconds. Final extension was 72° C. for 7 minutes. The PCR product was TA cloned into pcDNA3.2-TOPO (Invitrogen, Carlsbad, Calif.) according to standard protocol. AD293 cells with 70-80% confluency were transiently transfected with human PDE10A2/pcDNA3.2-TOPO using Lipofectamine 2000 according to manufacturer specifications (Invitrogen, Carlsbad, Calif.). Cells were harvested 48 hours post-transfection and lysed by sonication (setting 3, 10×5 sec pulses) in a buffer containing 20 mM HEPES, 1 mM EDTA and protease inhibitor cocktail (Roche). Lysate was collected by centrifugation at 75,000×g for 20 minutes. Supernatant containing the cytoplasmic fraction was used for evaluation of PDE10A2 activity. The fluorescence polarization assay for cyclic nucleotide phosphodiesterases was performed using an IMAP® FP kit supplied by Molecular Devices, Sunnyvale, Calif. (product # R8139). IMAPU technology has been applied previously to phosphodiesterase assays (Huang, W., et al., J. Biomol Screen, 2002, 7: 215). Assays were performed at room temperature in 384-well microtiter plates with an incubation volume of 20.2 μL. Solutions of test compounds were prepared in DMSO and serially diluted with DMSO to yield 8 μL of each of 10 solutions differing by 3-fold in concentration, at 32 serial dilutions per plate. 100% inhibition is determined using a known PDE10 inhibitor, which can be any compound that is present at 5,000 times its Ki value in the assay described as follows, such as papaverine (see Siuciak, et al. Neuropharmacology (2006) 51:386-396; Becker, et al. Behav Brain Res (2008) 186(2):155-60; Threlfell, et al., J Pharmacol Exp Ther (2009) 328(3):785-795), 2-{4-[pyridin-4-yl-1-(2,2,2-trifluoroethyl)-1H-pyrazol-3-yl]phenoxymethyl}quinoline succinic acid or 2-[4-(1-methyl-4-pyridin-4-yl-1H-pyrazol-3-yl)-phenoxymethyl]quinoline succinic acid (see Schmidt, et al. J Pharmacol Exp Ther (2008) 325:681-690; Threlfell, et al., J Pharmacol Exp Ther (2009) 328(3): 785-795). 0% of inhibition is determined by using DMSO (1% final concentrations).
# A Labcyte Echo 555 (Labcyte, Sunnyvale, Calif.) is used to dispense 200 nL from each well of the titration plate to the 384 well assay plate. A solution of enzyme (1/1600 dilution from aliquots; sufficient to produce 20% substrate conversion) and a separate solution of FAM-labeled cAMP PDE from Molecular Devices (product # R7506), at a final concentration of 50 nM are made in the assay buffer (10 mM Tris HCl, pH 7.2, 10 mM MgCl2, 0.05% NaN3 0.01% Tween-20, and 1 mM DTT). The enzyme and the substrate are then added to the assay plates in two consecutive additions of 10 μL, and then shaken to mix. The reaction is allowed to proceed at room temperature for 30 minutes. A binding solution is then made from the kit components, comprised of 80% Solution A, 20% Solution B and binding reagent at a volume of 1/600 the total binding solution.
# Sequence of human PDE10A2 (Q9Y233 267-1055): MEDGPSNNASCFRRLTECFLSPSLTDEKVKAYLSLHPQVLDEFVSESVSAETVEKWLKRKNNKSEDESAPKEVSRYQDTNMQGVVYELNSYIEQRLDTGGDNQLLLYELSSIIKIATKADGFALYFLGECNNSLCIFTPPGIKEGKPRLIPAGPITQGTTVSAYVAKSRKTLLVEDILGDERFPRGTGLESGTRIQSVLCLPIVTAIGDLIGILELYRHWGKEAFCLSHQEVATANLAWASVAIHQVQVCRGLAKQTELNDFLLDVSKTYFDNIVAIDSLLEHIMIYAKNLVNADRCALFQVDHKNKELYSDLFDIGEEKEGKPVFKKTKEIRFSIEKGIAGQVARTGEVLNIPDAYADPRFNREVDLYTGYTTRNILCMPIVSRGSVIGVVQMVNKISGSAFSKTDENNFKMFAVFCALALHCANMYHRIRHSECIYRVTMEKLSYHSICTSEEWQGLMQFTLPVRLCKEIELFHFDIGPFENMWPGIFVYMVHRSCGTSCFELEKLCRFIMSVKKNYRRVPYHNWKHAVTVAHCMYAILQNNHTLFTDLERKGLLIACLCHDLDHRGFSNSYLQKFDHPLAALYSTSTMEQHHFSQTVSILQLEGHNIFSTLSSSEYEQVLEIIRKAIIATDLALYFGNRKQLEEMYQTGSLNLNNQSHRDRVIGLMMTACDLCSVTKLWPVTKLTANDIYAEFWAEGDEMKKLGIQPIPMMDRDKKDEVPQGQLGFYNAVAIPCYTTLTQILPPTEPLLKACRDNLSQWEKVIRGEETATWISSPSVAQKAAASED
row,Ki [nM],SMILES
1,0.377,"COc1ccc([C@H]2C[C@@H]2COc2nc(C)ncc2-c2ccc(=O)n(CC3CC3)c2)nc1 [Example 53, 1-(cyclopropylmethyl)-5-(4-(((1S,2S)-2-(5-methoxypyridin-2-yl)cyclopropyl)methoxy)-2-methylpyrimidin-5-yl)pyridin-2(1H)-one]"
2,100,"Cc1ncc(-c2ccn(C)c(=O)c2)c(OC[C@@H]2C[C@H]2c2ccc(OC(F)F)cn2)n1 [Example 94, 4-(4-(((1R,2R)-2-(5-(difluoromethoxy)pyridin-2-yl)cyclopropyl)methoxy)-2-methylpyrimidin-5-yl)-1-methylpyridin-2(1H)-one]"
3,2.33,"COn1cc(-c2cnc(C)nc2OC[C@H]2C[C@@H]2c2ccc(C)cn2)ccc1=O [Example 8, 1-methoxy-5-(2-methyl-4-(((1S,2S)-2-(5-methylpyridin-2-yl)cyclopropyl)methoxy)pyrimidin-5-yl)pyridin-2(1H)-one]"
4,3.65,"COC(=O)Cn1cc(-c2cnc(C)nc2OC[C@H]2C[C@@H]2c2ccc(OC)cn2)ccc1=O [Example 47, methyl 2-(5-(4-(((1S,2S)-2-(5-methoxypyridin-2-yl)cyclopropyl)methoxy)-2-methylpyrimidin-5-yl)-2-oxopyridin-1(2H)-yl)acetate]"
5,4.27,"Cc1ccc([C@H]2C[C@@H]2COc2nc(C)ncc2-c2ccc(=O)n(C(C)C)c2C)nc1 [Example 37, 1-isopropyl-6-methyl-5-(2-methyl-4-(((1S,2S)-2-(5-methylpyridin-2-yl)cyclopropyl)methoxy)pyrimidin-5-yl)pyridin-2(1H)-one]"
6,2.04,"Cc1ccc([C@H]2C[C@@H]2COc2nc(C)ncc2-c2ccc(=O)n(C)c2)nc1 [Example 28, 1-methyl-5-(2-methyl-4-(((1S,2S)-2-(5-methylpyridin-2-yl)cyclopropyl)methoxy)pyrimidin-5-yl)pyridin-2(1H)-one]"
7,6.04,"COc1ccc([C@H]2C[C@@H]2COc2nc(C)ncc2-c2cc(=O)n(C)cn2)nc1 [Example 142, 6-(4-(((1S,2S)-2-(5-methoxypyridin-2-yl)cyclopropyl)methoxy)-2-methylpyrimidin-5-yl)-3-methylpyrimidin-4(3H)-one]"
8,3.02,"COc1ccc([C@H]2C[C@@H]2COc2nc(C)ncc2-c2cc(=O)n(C)cc2C(F)(F)F)nc1 [Example 93, 4-(4-(((1S,2S)-2-(5-methoxypyridin-2-yl)cyclopropyl)mcthoxy)-2-methylpyrimidin-5-yl)-1-methyl-5-(trifluoromethyl)pyridin-2(1H)-one]"
9,0.053,"COn1cc(-c2cnc(C)nc2OC[C@H]2C[C@@H]2c2ccc3ccccc3n2)ccc1=O [Example 12, 1-methoxy-5-(2-methyl-4-(((1S,2S)-2-(quinolin-2-yl)cyclopropyl)methoxy)pyrimidin-5-yl)pyridin-2(1H)-one]"
10,0.004,"COc1cc(-c2cnc(C)nc2OC[C@H]2C[C@@H]2c2ccc3ccccc3n2)cn(C)c1=O [Example 56, 3-methoxy-1-methyl-5-(2-methyl-4-(((1S,2S)-2-(quinolin-2-yl)cyclopropyl)methoxy)pyrimidin-5-yl)pyridin-2(1H)-one]"
11,0.284,"COC(=O)Cn1ccc(-c2cnc(C)nc2OC[C@H]2C[C@@H]2c2ccc(OC)cn2)cc1=O [Example 124, methyl 2-(4-(4-(((1S,2S)-2-(5-methoxypyridin-2-yl)cyclopropyl)methoxy)-2-methylpyrimidin-5-yl)-2-oxopyridin-1(2H)-yl)acetate]"
12,21.2,"COc1ccc([C@H]2C[C@@H]2COc2nc(C)ncc2-c2cc(=O)n(C)nc2O)nc1 [Example 139, 6-hydroxy-5-(4-(((1S,2S)-2-(5-methoxypyridin-2-yl)cyclopropyl)methoxy)-2-methylpyrimidin-5-yl)-2-methylpyridazin-3(2H)-one]"
13,0.4,"COCCn1ccc(-c2cnc(C)nc2OC[C@H]2C[C@@H]2c2ccc(C)cn2)cc1=O [Example 101, 1-(2-methoxyethyl)-4-(2-mcthyl-4-(((1S,2S)-2-(5-methylpyridin-2-yl)cyclopropyl)methoxy)pyrimidin-5-yl)pyridin-2(lH)-one]"
14,1.01,"Cc1ccc([C@H]2C[C@@H]2COc2nc(C)ncc2-c2ccn(CCO)c(=O)c2)nc1 [Example 126, 1-(2-hydroxyethyl)-4-(2-methyl-4-(((1S,2S)-2-(5-methylpyridin-2-yl)cyclopropyl)methoxy)pyrimidin-5-yr)pyridin-2(1H)-one]"
15,0.378,"Cc1ncc(-c2ccn(C)c(=O)c2)c(OC[C@H]2C[C@@H]2c2ccc3c(n2)CCC3)n1 [Example 114, 4-(4-(((1S,2S)-2-(6,7-dihydro-5H-cyclopenta[b]pyridin-2-yl)cyclopropyl)methoxy)-2-methylpyrimidin-5-yl)-1-methylpyridin-2(1H)-one]"
16,1.93,"COc1ccc([C@H]2C[C@@H]2COc2nc(C)ncc2-c2ccn(C(F)F)c(=O)c2)nc1 [Example 117, 1-(difluoromethyl)-4-(4-(((1S,2S)-2-(5-methoxypyridin-2-yl)cyclopropyl)methoxy)-2-methylpyrimidin-5-yl)pyridin-2(1H)-one]"
17,0.024,"CCn1cc(-c2cnc(C)nc2OC[C@H]2C[C@@H]2c2ccc3ccccc3n2)ccc1=O [Example 32, 1-ethyl-5-(2-methyl-4-(((1S,2S)-2-(quinolin-2-yl)cyclopropyl)methoxy)pyrimidin-5-yl)pyridin-2(1H)-one]"
18,1.01,"COc1ccc([C@H]2C[C@@H]2COc2nc(C)ncc2-c2ccc(=O)n(C)c2)nc1 [Example 2, 5-(4-(((1S,2S)-2-(5-methoxypyridin-2-yl)cyclopropyl)methoxy)-2-methylpyrimidin-5-yl)-1-methylpyridin-2(1H)-one]"
19,1.43,"CCn1ccc(-c2cnc(C)nc2OC[C@H]2C[C@@H]2c2ccc(C)cn2)cc1=O [Example 69, 1-ethyl-4-(2-methyl-4-(((1S,2S)-2-(5-methylpyridin-2-yl)cyclopropyl)methoxy)pyrimidin-5-yl)pyridin-2(1H)-one]"
20,4.86,"Cc1ccc([C@H]2C[C@@H]2COc2nc(C)ncc2-c2ccc(=O)n(-c3ccccc3)c2)nc1 [Example 15, 5-(2-methyl-4-(((1S,2S)-2-(5-methylpyridin-2-yl)cyclopropyl)methoxy)pyrimidin-5-yl)-1-phenylpyridin-2(1H)-one]"
21,0.827,"COc1ccc([C@H]2C[C@@H]2COc2nc(C)ncc2-c2ccc(=O)n(C(C)C)c2)nc1 [Example 21, 1-isopropyl-5-(4-(((1S,2S)-2-(5-methoxypyridin-2-yl)cyclopropyl)methoxy)-2-methylpyrimidin-5-yl)pyridin-2(1H)-one]"
22,0.533,"CCn1cc(-c2cnc(C)nc2OC[C@H]2C[C@@H]2c2ccc(C)cn2)cc(C)c1=O [Example 41, 1-ethyl-3-methyl-5-(2-methyl-4-(((1S,2S)-2-(5-methylpyridin-2-yl)cyclopropyl)methoxy)pyrimidin-5-yl)pyridin-2(1H)-one]"
23,0.03,"Cc1ncc(-c2ccn(C)c(=O)c2)c(OC[C@H]2C[C@@H]2c2ccc3ccccc3n2)n1 [Example 79, 1-methyl-4-(2-methyl-4-(((1S,2S)-2-(quinolin-2-yl)cyclopropyl)methoxy)pyrimidin-5-yl)pyridin-2(1H)-one]"
24,2.56,"Cc1ccc([C@H]2C[C@@H]2COc2nc(C)ncc2-c2ccc(=O)n(CC(F)F)c2)nc1 [Example 43, 1-(2,2-difluoroethyl)-5-(2-methyl-4-(((1S,2S)-2-(5-methylpyridin-2-yl)cyclopropyl)methoxy)pyrimidin-5-yl)pyridin-2(1H)-one]"
